Here are results for six compounds from patent publication US7589123B2, “Chemical compounds” (Phytopharm PLC, priority 2006, dated 2009).

Where a name gives a salt, the structure may show the parent alone.

Data set [1] concerns the target TRPV1 receptor (Rattus norvegicus, UniProt O35433). The experiment in a line: TRPV1 modulation in DRG neurones: CGRP release in absence and presence of capsaicin (Assay 2). The class given is cell-based. More on the design: The culture used for this experiment contained sensory neurones, Schwann cells and fibroblasts; endogenous in cells; host or cells: primary rat DRG sensory neurone culture (with Schwann cells and fibroblasts). Conditions: 20 min; for inhibition at 3 µM: 3 μM with capsaicin 1 μM; for inhibition at 3 µM / inhibition at 30 µM: −ve: inhibition, +ve: potentiation of capsaicin response, read-out: Effect of test compounds on capsaicin (1 μM)-induced CGRP release (%); for inhibition at 30 µM: 30 μM with capsaicin 1 μM; for Emax at 3 µM: test compound alone 3 μM; for Emax at 3 µM / Emax at 30 µM: rat DRG sensory neurones, read-out: CGRP release (% of capsaicin (1 μM) response); for Emax at 30 µM: test compound alone 30 μM.

Data set [2] relates to WI-38 cells. The experiment in a line: Viability of WI-38 cells, Alamar Blue (Assay 5). In kind it is cell-based, human. The protocol: (§1) Human diploid lung fibroblasts (WI-38 cells) were incubated overnight in the presence of IL-1α (1 nM) and test compound (3 and 30 μM) in modified Eagle medium at pH 7.3 containing foetal bovine serum (10%) at 37° C. The supernatant was assayed by radioimmunoassay for released PGE2 and the inhibition of PGE2 by test compound calculated (Table 10). The viability of the cells was then assessed by washing with Roswell Park Memorial Institute medium and adding Alamar Blue reagent before being incubated at 37° C. for 4 h. Living cells take up Alamar Blue and emit fluorescence when excited. Fluorescence intensity was measured using a SpectroFluor Plus plate reader with excitation at 530 nm and emission at 590 nm (Table 10).
On the technique in general: Alamar Blue is a resazurin reagent that responds to reducing activity.

For data set [3], the system named is α-smooth muscle actin (α-SMA) mRNA. The experiment in a line: Anti-remodelling activity in human lung fibroblasts (HFL1): TGFβ-induced α-SMA mRNA (Assay 4). In kind it is cell-based. Conditions: Homo sapiens, HFL1 cells, TGFβ 10 ng/ml, 24 h, read-out: Inhibition of α-SMA mRNA synthesis (%). The method, then:
A human foetal lung fibroblast cell line (HFL1 cells; ATCC accession number CCl-153) was used in this assay. The cells were cultured in medium containing a low level of foetal bovine serum (FBS; 0.1%) for 24 h. After 24 h of culturing the medium was changed to: (a) Control medium (medium containing 10% FBS, 1% phosphate saline and 0.5 mM L-glutamine), (b) Control medium and transforming growth factor beta (TGFβ; 10 ng/ml), (c) Control medium and TGFβ and test compounds (3 and 30 μM). The medium was collected after 24 h and the total mRNA extracted in Tri-reagent. The level of mRNA coding for α-smooth muscle actin (α-SMA) was assessed by real-time reverse transcription-polymerase chain reaction (rtRT-PCR) using primer couples that allow the amplification of α-SMA mRNA. Liver glyceraldehydes 3-phosphate dehydrogenase (GADPH) was used as a reference marker in this experiment. The inhibition of the TGTβ-induced overexpression of α-SMA mRNA by the test compounds was quantified.

Data set [4] has as its target T1, 5-lipoxygenase (Homo sapiens, UniProt P09917).
T1 construct: endogenous in cells; host or cells: human peripheral blood mononuclear leukocytes (PBMLs)
T1 sequence (P09917 1-674): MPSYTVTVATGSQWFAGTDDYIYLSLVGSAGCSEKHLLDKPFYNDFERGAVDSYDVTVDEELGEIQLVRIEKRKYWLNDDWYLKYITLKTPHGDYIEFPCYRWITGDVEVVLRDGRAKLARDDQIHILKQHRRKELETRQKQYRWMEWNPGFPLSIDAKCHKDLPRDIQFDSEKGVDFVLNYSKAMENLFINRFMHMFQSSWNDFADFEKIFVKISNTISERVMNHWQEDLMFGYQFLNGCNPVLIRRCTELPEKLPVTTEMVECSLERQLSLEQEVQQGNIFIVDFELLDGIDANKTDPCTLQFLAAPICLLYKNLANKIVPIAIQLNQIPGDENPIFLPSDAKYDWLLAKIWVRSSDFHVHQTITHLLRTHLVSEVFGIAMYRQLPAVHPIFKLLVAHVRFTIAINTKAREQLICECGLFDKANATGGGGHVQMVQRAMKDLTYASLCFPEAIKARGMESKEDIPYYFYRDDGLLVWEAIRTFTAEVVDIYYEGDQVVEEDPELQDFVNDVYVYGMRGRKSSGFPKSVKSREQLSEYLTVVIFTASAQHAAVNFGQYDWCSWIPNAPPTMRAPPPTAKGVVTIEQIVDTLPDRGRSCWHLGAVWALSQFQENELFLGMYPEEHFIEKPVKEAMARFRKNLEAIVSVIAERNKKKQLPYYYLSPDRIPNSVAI
The experiment in a line: 5-lipoxygenase activity (LTB4) in human peripheral blood mononuclear leukocytes (Assay 6). In kind it is cell-based. The settings on record: human PBMLs, A23187 30 μM, read-out: Inhibition of 5-LO (%). The protocol: Human peripheral blood mononuclear leukocytes (PBMLs) were isolated using a Ficoll-Paque density gradient. Human peripheral blood mononuclear leukocytes (5×10^6 cells) were incubated with A23187 (30 μM), a divalent cation ionophore used to initiate the biosynthesis of […], and with vehicle (0.1% DMSO) or test compound (3 and 30 μM) in Hank's balanced salt solution (HBBS) buffer, pH 7.4 at 37° C. for 15 min. The PBML solution was neutralized with NaOH (1 N) and centrifuged at 1000 g for 10 min and the supernatant collected. The concentration of leukotriene B4 (LTB4) in the supernatant was measured using an enzyme immunoassay kit (Assay Design Inc.). A reduction in the concentration of LTB4 indicated an inhibition of the enzyme 5-lipoxygenase (Table 11).

In data set [5] the test system is histamine-induced contractions in guinea pig ileum. The experiment in a line: Inhibition of histamine-induced contractions in guinea pig ileum (Assay 3). The settings on record: Cavia porcellus, histamine 1.7 μM, read-out: Inhibition of histamine-induced contraction (%). The method, then:
(§2) Duncan Hartley derived male guinea pigs (325±25 g) were suppressed by CO2 overexposure, the abdominal cavity was exposed and ileal segments were removed. Small strips of ileum were suspended in organ baths containing Krebs solution (composition in g/l: NaCl 6.89, KCl 0.35, CaCl2 0.277, KH2PO4 0.163, MgSO4.7H2O 0.296, NaHCO3 2.1 glucose 1.8). The solution was kept at 32° C. and gassed with O2 (95%)-CO2 (5%) to maintain pH at 7.4. Mechanical activity was recorded by means of isotonic transducers. A resting tension of 1 g was applied to muscle strips before being equilibrated for 1 h, prior to test compound addition. Each preparation was washed twice at 15 min intervals during the equilibration.
(§3) Histamine (1.7 μM; approximately EC60-70) or 5-hydroxytryptamine (5-HT, 2.6 μM; approximately EC60-70) was applied for 5 min and the amplitude of the contraction recorded. The histamine or 5-HT was then washed out until the ileal tissue returned to baseline. Five min after returning to baseline test compound (3 and 30 μM) was applied and the amplitude of the contraction (if any) was recorded. In the continuous presence of test compound, histamine or 5-HT was re-applied and the inhibition of the response was recorded.

Data set [6] concerns 5-HT-induced contractions in guinea pig ileum. The experiment in a line: Inhibition of 5-HT-induced contractions in guinea pig ileum (Assay 3). Conditions: Cavia porcellus, 5-HT 2.6 μM, read-out: Inhibition of 5-HT-induced contraction (%). The method, then: as §2, §3
Data set [7] concerns IL-1α-induced PGE2 release. The experiment in a line: IL-1α-induced PGE2 release in human diploid lung fibroblasts (WI-38) (Assay 5). The class given is cell-based. Conditions: Homo sapiens, WI-38 cells, IL-1α 1 nM, overnight. The protocol: as §1

TRPV1 receptor, sequence (O35433 whole entry): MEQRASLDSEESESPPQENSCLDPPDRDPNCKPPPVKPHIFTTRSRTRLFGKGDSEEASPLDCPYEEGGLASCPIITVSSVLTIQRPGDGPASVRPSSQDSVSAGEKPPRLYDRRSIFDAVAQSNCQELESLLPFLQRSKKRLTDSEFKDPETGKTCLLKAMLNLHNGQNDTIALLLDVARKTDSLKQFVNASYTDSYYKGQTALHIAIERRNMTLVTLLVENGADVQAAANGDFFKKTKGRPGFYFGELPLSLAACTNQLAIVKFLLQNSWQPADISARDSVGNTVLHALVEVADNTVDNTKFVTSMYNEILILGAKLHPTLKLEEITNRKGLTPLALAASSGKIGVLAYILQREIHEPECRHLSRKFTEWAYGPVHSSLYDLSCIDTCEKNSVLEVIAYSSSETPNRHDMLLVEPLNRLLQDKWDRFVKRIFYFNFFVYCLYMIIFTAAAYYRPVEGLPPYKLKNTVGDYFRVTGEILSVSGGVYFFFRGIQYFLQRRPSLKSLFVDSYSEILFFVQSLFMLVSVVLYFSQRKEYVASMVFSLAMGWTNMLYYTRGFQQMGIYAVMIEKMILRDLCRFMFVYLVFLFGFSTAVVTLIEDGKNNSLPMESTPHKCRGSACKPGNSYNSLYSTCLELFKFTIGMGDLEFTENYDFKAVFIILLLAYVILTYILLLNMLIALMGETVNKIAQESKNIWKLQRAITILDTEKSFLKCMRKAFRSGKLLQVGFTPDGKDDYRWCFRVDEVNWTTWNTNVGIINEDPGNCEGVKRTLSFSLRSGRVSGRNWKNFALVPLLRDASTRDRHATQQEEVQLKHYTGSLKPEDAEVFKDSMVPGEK

Turning to `COc1cc(CCC(=O)CC(=O)C(C)(C)c2ccccc2)ccc1O` [Compound 31, 6-(4-Hydroxy-3-methoxyphenyl)-1,1-dimethyl-1-phenyl-hexane-2,4-dione], the inhibition at 3 µM in data set [1] was 17%; in data set [3], 34%; in data set [4], 32%; in data set [5] it was 12%; in data set [6], 10%; in data set [7], 83%. Further, the inhibition at 30 µM in data set [1] was -77%; in data set [3], 80%; in data set [4], 95%; in data set [5] it was 68%; in data set [6] it was 96%; in data set [7], 101%. Besides, in data set [1], the Emax at 3 µM was 56%. In addition, the Emax at 30 µM in data set [1] is 109%. For the same compound, the “Decrease in cell viability (%)” value in data set [2] (3 μM) is reported as 5%; in data set [2] (30 μM), −7%.

Take `COc1cc(CCC(=O)CC(=O)c2ccccc2Cl)ccc1O` [Compound 74, 1-(2-Chlorophenyl)-5-(4-hydroxy-3-methoxyphenyl)pentane-1,3-dione]: the inhibition at 3 µM in data set [1] was 15%; in data set [3], -4%; in data set [4], 60%; in data set [5], 1%; in data set [6], 10%; in data set [7] it was 99%. Also, the inhibition at 30 µM in data set [1] came out at 6%; in data set [3] it was 53%; in data set [4], 98%; in data set [5] it was 41%; in data set [6] it was 89%; in data set [7], 101%. In addition, in data set [1], the Emax at 3 µM came out at 54%. For the same compound, in data set [1], the Emax at 30 µM came out at 75%. For the same compound, the “Decrease in cell viability (%)” value in data set [2] (3 μM) turned out to be 1%; in data set [2] (30 μM) it was 16%.

Turning to `CCC(C(=O)CCc1ccc(O)c(OC)c1)C(=O)c1ccccc1` (stereo not shown) [Compound 12, 2-Ethyl-5-(4-hydroxy-3-methoxyphenyl)-1-phenyl-pentane-1,3-dione], the inhibition at 3 µM amounted to 13% in data set [1]; 9% in data set [3]; 41% in data set [4]; 3% in data set [5]; 3% in data set [6]; 69% in data set [7]. Moreover, the inhibition at 30 µM in data set [1] is 14%; in data set [3], 34%; in data set [4] it was 94%; in data set [5], 41%; in data set [6], 47%; in data set [7], 101%. Besides, in data set [1], the Emax at 3 µM amounted to 19%. In addition, the Emax at 30 µM in data set [1] is 73%. The “Decrease in cell viability (%)” value was 6% in data set [2] (3 μM) and −5% in data set [2] (30 μM).

Take `COc1cc(CCC(=O)C(C)(C)C(=O)C2(C)CC2)ccc1O` [Compound 70, 5-(4-Hydroxy-3-methoxyphenyl)-2,2-dimethyl-1-(1-methylcyclopropyl)pentane-1,3-dione]: the “Decrease in cell viability (%)” value in data set [2] (3 μM) stood at 0%; in data set [2] (30 μM), 5%. Also, the inhibition at 3 µM in data set [4] was -1%; in data set [5], 4%; in data set [6] it was 2%; in data set [7] it was 42%. Moreover, the inhibition at 30 µM in data set [4] worked out at 63%; in data set [5], 29%; in data set [6], 46%; in data set [7], 86%.

In the case of `COc1cc(CCC(=O)CC(=O)c2ccccc2)ccc1OCCN` [Compound 87, 5-(4-(2-aminoethoxy)-3-methoxyphenyl)-1-phenylpentane-1,3-dione hydrochloride], the inhibition at 3 µM was -6% in data set [4], 0% in data set [5], 15% in data set [6] and -28% in data set [7]. The inhibition at 30 µM in data set [4] is 19%; in data set [5], 58%; in data set [6], 93%; in data set [7] it was -62%.

Regarding `COc1cc(CCC(=O)CC(=O)c2ccc3ccccc3c2)c(Cl)cc1O` [Compound 86, 5-(2-Chloro-4-hydroxy-5-methoxyphenyl)-1-(naphthalene-3-yl)pentane-1,3-dione], the “Decrease in cell viability (%)” value in data set [2] (3 μM) was 7%; in data set [2] (30 μM), 37%. Further, the inhibition at 3 µM amounted to 52% in data set [4], 0% in data set [5], 4% in data set [6] and 42% in data set [7]. Also, the inhibition at 30 µM in data set [4] was found to be 98%; in data set [5], 9%; in data set [6], 19%; in data set [7], 100%.
